# Data as given in patent EP3046573B1, “AMYLIN ANALOGUES” (Zealand Pharma A/S, priority 2013, dated 2015).
# Numbered stars: 1 amine (or outer) side, 2 acyl side, 3 side chain; on linkers, the order of the positions; unused ones are H or OH. Bridge positions count the residues as written; N and C are the ends. Square brackets hold non-standard residues; d marks the D form. Peptide text beside a SMILES is read from it. * marks the point of attachment. C20 diacid = O=C(O)CCCCCCCCCCCCCCCCCCC(=O)*; γGlu = O=C(O)[C@H](CCC(=O)[*:2])N[*:1]; NMeI = CC[C@H](C)[C@H](NC)C(=O)O; NMeA = CN[C@@H](C)C(=O)O; Sar = CNCC(=O)O
# Columns and labels:
# [1] = target: T1, human calcitonin receptor (hCTR2) (Homo sapiens, UniProt P30988); assay: hCTR2 assay: induction of cAMP (AlphaScreen cAMP Assay kit) in COS7 cells expressing hCTR2; type: cell-based
# T1 construct: expressed in transfected cells
# T1 sequence (P30988 25-474): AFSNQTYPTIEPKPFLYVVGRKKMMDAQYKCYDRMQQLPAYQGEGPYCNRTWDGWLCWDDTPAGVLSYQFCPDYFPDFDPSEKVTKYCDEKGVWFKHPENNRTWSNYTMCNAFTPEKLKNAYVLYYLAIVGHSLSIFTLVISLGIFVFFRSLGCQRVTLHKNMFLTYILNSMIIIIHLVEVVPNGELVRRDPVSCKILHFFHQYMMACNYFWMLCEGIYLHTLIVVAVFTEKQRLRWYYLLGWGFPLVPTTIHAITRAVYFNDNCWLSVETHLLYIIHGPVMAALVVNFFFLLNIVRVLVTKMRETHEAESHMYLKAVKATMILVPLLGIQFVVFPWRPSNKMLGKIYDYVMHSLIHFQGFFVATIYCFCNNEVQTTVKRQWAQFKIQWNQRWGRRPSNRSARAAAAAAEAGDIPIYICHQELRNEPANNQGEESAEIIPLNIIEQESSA
# How it was run: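 Functional agonism is measured as cAMP accumulation in a COS7 line stably transfected with hCTR2, lacking endogenous RAMPs. Peptides act for 15 min at 37° C with IBMX present, and curves are fitted with a 4-parameter logistic model.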
# [2] = target: T2, human amylin receptor 3 (hAMYR3) consisting of hCTR2 co-expressed with human Receptor Activity Modifying Protein 3 (hRAMP3) (Homo sapiens, UniProt O60896+P30988); assay: hAMYR3 assay: induction of cAMP (AlphaScreen cAMP Assay kit) in COS7 cells expressing hAMYR3; type: cell-based
# T2 construct: expressed in transfected cells
# T2 sequence (P30988 25-474): T1 sequence (P30988 25-474)
# T2 sequence (O60896 24-148 partner): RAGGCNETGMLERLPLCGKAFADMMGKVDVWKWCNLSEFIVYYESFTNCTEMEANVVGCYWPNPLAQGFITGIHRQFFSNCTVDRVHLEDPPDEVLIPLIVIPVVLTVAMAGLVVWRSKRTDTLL
# How it was run: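 Stable COS7 clone co-expressing hCTR2 and hRAMP3, stimulated 15 min at 37° C with increasing peptide in Tyrode buffer pH 7.4 with 100 µM IBMX and 0.1% casein. cAMP measured by AlphaScreen after lysis; EC50 and % efficacy versus pramlintide from 4PL fit.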
# [3] = Solubility assessment (turbidity absorbance at 325 nm); type: physicochemical; settings: stock 2 mg/ml diluted 1:1, ambient temperature (typically 25°C), n=1; for Solubility, Acetate buffer pH 4: 100 mM acetate buffer pH 4.0; for Solubility, Acetate buffer pH 5: 100 mM acetate buffer pH 5.0; for Solubility, Histidine buffer pH 6: 100 mM histidine buffer pH 6.0; for Solubility, Histidine buffer pH 7: 100 mM histidine buffer pH 7.0; for Solubility, Phosphate buffer pH 6: 100 mM phosphate buffer pH 6.0; for Solubility, Phosphate buffer pH 7: 100 mM phosphate buffer pH 7.0; for Solubility, Phosphate buffer pH 7.5: 100 mM phosphate buffer pH7.5
# How it was run: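 Peptide stock (2 mg/ml, water pH 2.5) diluted 1:1 into 100 mM acetate (pH 4.0, 5.0), histidine (pH 6.0, 7.0) or phosphate (pH 6.0–7.5) buffer; absorbance at 325 nm read at about 25°C, n=1. A325 ≤ 0.02 taken as solubility ≥ 1 mg/ml.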
SMILES,EC50 [1] [nM],EC50 [2] [nM],"Solubility, Acetate buffer pH 4 [3]","Solubility, Acetate buffer pH 5 [3]","Solubility, Histidine buffer pH 6 [3]","Solubility, Histidine buffer pH 7 [3]","Solubility, Phosphate buffer pH 6 [3]","Solubility, Phosphate buffer pH 7 [3]","Solubility, Phosphate buffer pH 7.5 [3]"
"CC[C@H](C)[C@@H](C(=O)N[C@@H](CC(C)C)C(=O)N[C@@H](CO)C(=O)N[C@@H](CO)C(=O)N[C@H](C(=O)N[C@@H](CC(N)=O)C(=O)N[C@H](C(=O)NCC(=O)N[C@@H](CO)C(=O)N[C@@H](CC(N)=O)C(=O)N[C@H](C(=O)N(C)CC(N)=O)[C@@H](C)O)C(C)C)[C@@H](C)O)N(C)C(=O)[C@H](C)NC(=O)CN(C)C(=O)[C@H](Cc1ccccc1)NC(=O)[C@H](CC(N)=O)NC(=O)[C@H](CC(N)=O)NC(=O)[C@H](CO)NC(=O)[C@H](CO)NC(=O)[C@H](CCCNC(=N)N)NC(=O)[C@H](Cc1c[nH]cn1)NC(=O)[C@H](CC(C)C)NC(=O)[C@H](Cc1ccccc1)NC(=O)[C@H](CCC(=O)O)NC(=O)[C@H](C)NC(=O)[C@H](CC(C)C)NC(=O)[C@H](CCCNC(=N)N)NC(=O)[C@H](CCC(N)=O)NC(=O)[C@@H](NC(=O)[C@H](C)NC(=O)[C@@H]1CSSC[C@H](NC(=O)[C@H](CCCNC(=N)N)NC(=O)CC[C@H](NC(=O)CCCCCCCCCCCCCCCCCCC(=O)O)C(=O)O)C(=O)N[C@@H](CC(N)=O)C(=O)N[C@@H]([C@@H](C)O)C(=O)N[C@@H](C)C(=O)N[C@@H]([C@@H](C)O)C(=O)N1)[C@@H](C)O [Compound 101, [19CD]-isoGlu-RC()NTATC()ATQRLAEFLHRSSNNF-Gly(Me)-A-Ile(Me)-LSSTNVGSNT-Gly(Me)-NH2] ({C20 diacid-γGlu}-RCNTATCATQRLAEFLHRSSNNF[Sar]A[NMeI]LSSTNVGSNT[Sar]-NH2; disulfide 2-7)",0.6,2.7,SS (SS indicates solubility ≥ 1mg/ml),SS (SS indicates solubility ≥ 1mg/ml),SS (SS indicates solubility ≥ 1mg/ml),SS (SS indicates solubility ≥ 1mg/ml),II (II indicates solubility ≤ 1 mg/ml),SS (SS indicates solubility ≥ 1mg/ml),SS (SS indicates solubility ≥ 1mg/ml)
"CC[C@H](C)[C@@H](C(=O)N[C@@H](CC(C)C)C(=O)N[C@@H](CO)C(=O)N[C@@H](CO)C(=O)N[C@H](C(=O)N[C@@H](CC(N)=O)C(=O)N[C@H](C(=O)NCC(=O)N[C@@H](CO)C(=O)N[C@@H](CC(N)=O)C(=O)N[C@H](C(=O)N(C)[C@@H](C)C(N)=O)[C@@H](C)O)C(C)C)[C@@H](C)O)N(C)C(=O)[C@H](C)NC(=O)CN(C)C(=O)[C@H](Cc1ccccc1)NC(=O)[C@H](CC(N)=O)NC(=O)[C@H](CC(N)=O)NC(=O)[C@H](CO)NC(=O)[C@H](CO)NC(=O)[C@H](CCCNC(=N)N)NC(=O)[C@H](Cc1c[nH]cn1)NC(=O)[C@H](CC(C)C)NC(=O)[C@H](Cc1ccccc1)NC(=O)[C@H](CCC(=O)O)NC(=O)[C@H](C)NC(=O)[C@H](CC(C)C)NC(=O)[C@H](CCCNC(=N)N)NC(=O)[C@H](CCC(N)=O)NC(=O)[C@@H](NC(=O)[C@H](C)NC(=O)[C@@H]1CSSC[C@H](NC(=O)[C@H](CCCNC(=N)N)NC(=O)CC[C@H](NC(=O)CCCCCCCCCCCCCCCCCCC(=O)O)C(=O)O)C(=O)N[C@@H](CC(N)=O)C(=O)N[C@@H]([C@@H](C)O)C(=O)N[C@@H](C)C(=O)N[C@@H]([C@@H](C)O)C(=O)N1)[C@@H](C)O [Compound 102, [19CD]-isoGlu-RC()NTATC()ATQRLAEFLHRSSNNF-Gly(Me)-A-Ile(Me)-LSSTNVGSNT-Ala(Me)-NH2] ({C20 diacid-γGlu}-RCNTATCATQRLAEFLHRSSNNF[Sar]A[NMeI]LSSTNVGSNT[NMeA]-NH2; disulfide 2-7)",0.42,1,SS (SS indicates solubility ≥ 1mg/ml),II (II indicates solubility ≤ 1 mg/ml),SS (SS indicates solubility ≥ 1mg/ml),SS (SS indicates solubility ≥ 1mg/ml),II (II indicates solubility ≤ 1 mg/ml),SS (SS indicates solubility ≥ 1mg/ml),SS (SS indicates solubility ≥ 1mg/ml)
"CC[C@H](C)[C@@H](C(=O)N[C@@H](CC(C)C)C(=O)N[C@@H](CO)C(=O)N[C@@H](CO)C(=O)N[C@H](C(=O)N[C@@H](CC(N)=O)C(=O)N[C@H](C(=O)NCC(=O)N[C@@H](CO)C(=O)N[C@@H](CC(N)=O)C(=O)N[C@H](C(=O)N(C)[C@H](C(N)=O)[C@@H](C)CC)[C@@H](C)O)C(C)C)[C@@H](C)O)N(C)C(=O)[C@H](C)NC(=O)CN(C)C(=O)[C@H](Cc1ccccc1)NC(=O)[C@H](CC(N)=O)NC(=O)[C@H](CC(N)=O)NC(=O)[C@H](CO)NC(=O)[C@H](CO)NC(=O)[C@H](CCCNC(=N)N)NC(=O)[C@H](Cc1c[nH]cn1)NC(=O)[C@H](CC(C)C)NC(=O)[C@H](Cc1ccccc1)NC(=O)[C@H](CCC(=O)O)NC(=O)[C@H](C)NC(=O)[C@H](CC(C)C)NC(=O)[C@H](CCCNC(=N)N)NC(=O)[C@H](CCC(N)=O)NC(=O)[C@@H](NC(=O)[C@H](C)NC(=O)[C@@H]1CSSC[C@H](NC(=O)[C@H](CCCNC(=N)N)NC(=O)CC[C@H](NC(=O)CCCCCCCCCCCCCCCCCCC(=O)O)C(=O)O)C(=O)N[C@@H](CC(N)=O)C(=O)N[C@@H]([C@@H](C)O)C(=O)N[C@@H](C)C(=O)N[C@@H]([C@@H](C)O)C(=O)N1)[C@@H](C)O [Compound 103, [19CD]-isoGlu-RC()NTATC()ATQRLAEFLHRSSNNF-Gly(Me)-A-Ile(Me)-LSSTNVGSNT-Ile(Me)-NH2H2] ({C20 diacid-γGlu}-RCNTATCATQRLAEFLHRSSNNF[Sar]A[NMeI]LSSTNVGSNT[NMeI]-NH2; disulfide 2-7)",0.65,5.1,SS (SS indicates solubility ≥ 1mg/ml),SS (SS indicates solubility ≥ 1mg/ml),SS (SS indicates solubility ≥ 1mg/ml),SS (SS indicates solubility ≥ 1mg/ml),II (II indicates solubility ≤ 1 mg/ml),SS (SS indicates solubility ≥ 1mg/ml),SS (SS indicates solubility ≥ 1mg/ml)
